Results: ChEMBL document CHEMBL5230140, “A retrospective overview of PHGDH and its inhibitors for regulating cancer metabolism” (Eur J Med Chem, 2021)

target: T1, D-3-phosphoglycerate dehydrogenase (Homo sapiens, UniProt O43175); test: Inhibition of human PHGDH by fluorescence based analysis
T1 sequence (O43175 whole entry): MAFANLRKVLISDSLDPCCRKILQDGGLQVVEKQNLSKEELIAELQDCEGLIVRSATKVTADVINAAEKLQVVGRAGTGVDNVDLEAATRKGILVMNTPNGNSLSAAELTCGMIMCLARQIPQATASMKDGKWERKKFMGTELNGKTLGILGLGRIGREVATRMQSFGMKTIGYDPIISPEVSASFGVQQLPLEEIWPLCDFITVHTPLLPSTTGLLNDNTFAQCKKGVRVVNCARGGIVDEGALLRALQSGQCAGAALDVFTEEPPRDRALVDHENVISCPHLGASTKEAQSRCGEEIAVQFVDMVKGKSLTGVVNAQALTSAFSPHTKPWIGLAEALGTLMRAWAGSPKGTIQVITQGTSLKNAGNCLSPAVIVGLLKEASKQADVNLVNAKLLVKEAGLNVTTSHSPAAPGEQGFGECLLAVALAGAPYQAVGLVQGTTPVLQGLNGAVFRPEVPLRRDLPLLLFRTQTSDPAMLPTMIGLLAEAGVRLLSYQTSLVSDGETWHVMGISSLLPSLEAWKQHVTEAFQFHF

IC50 [µM] | Structure (SMILES)
0.38 | S=C(SSC(=S)N1CCc2ccccc2C1)N1CCc2ccccc2C1
0.21 | S=C(SSC(=S)N1CCOCC1)N1CCOCC1
0.57 | S=C(SSC(=S)N1CCN(C2CCCCC2)CC1)N1CCN(C2CCCCC2)CC1
67.3 | CN1CCN(C(=S)SCSC(=S)N2CCNCC2)CC1
0.58 | CC1CCN(C(=S)SSC(=S)N2CCC(C)CC2)CC1
1.01 | CN(C(=S)SSC(=S)N(C)C1CCCCC1)C1CCCCC1
1.39 | S=C(SSC(=S)N(C1CCCCC1)C1CCCCC1)N(C1CCCCC1)C1CCCCC1
0.34 | S=C(SSC(=S)N1CCSCC1)N1CCSCC1
0.41 | S=C(SSC(=S)N1CCN(c2ccccc2)CC1)N1CCN(c2ccccc2)CC1
> 1000 | CCN(CC)C(=O)CSC(=S)N(CC)CC [(DIETHYLCARBAMOYL)METHYLENE DIETHYLCARBAMODITHIOATE]
45.9 | CCN(CC)C(=S)SCSC(=S)N(CC)CC
0.42 | CC1CCC(C)N1C(=S)SSC(=S)N1C(C)CCC1C (configuration not stated)
22.5 | S=C(SSC(=S)N1CCN(Cc2ccccc2)CC1)N1CCN(Cc2ccccc2)CC1
0.42 | CN(C(=S)SSC(=S)N(C)c1ccccc1)c1ccccc1
36.4 | CCN(CC)C(=S)CSC(=S)N(CC)CC [(DIETHYLTHIOCARBAMOYL)METHYLENE DIETHYLCARBAMODITHIOATE]
0.36 | S=C(Nc1ccccc1)SSC(=S)Nc1ccccc1
0.17 | CN1CCN(C(=S)SSC(=S)N2CCN(C)CC2)CC1

Structure (SMILES) | IC50 [µM]
S=C(SSC(=S)N1CCCCC1)N1CCCCC1 [BIS(PIPERIDINYLTHIOCARBONYL)DISULFIDE] | 0.51

target: T1, D-3-phosphoglycerate dehydrogenase; test: Binding affinity to PHGDH (unknown origin) by isothermal titration calorimetry

Kd [µM] | Structure (SMILES)
470 | NC(=O)c1cc2ccccc2s1

target: T1, D-3-phosphoglycerate dehydrogenase; test: Inhibition of human PHGDH using 3-PG as substrate incubated for 60 mins by fluorescence based analysis

IC50 [µM] | Structure (SMILES)
> 100 | O=C(c1cc(-c2ccccc2)n[nH]1)N1CCc2cc(S(=O)(=O)Nc3ncccn3)ccc21
< 50 | Cc1cc(C)nc(NS(=O)(=O)c2ccc(NC(=O)c3cc(-c4ccccc4O)n[nH]3)cc2)n1

target: T1, D-3-phosphoglycerate dehydrogenase; test: Binding affinity to human PHGDH (3 to 314 residues) expressed in Escherichia coli Rosetta (DE3) by isothermal titration calorimetry

Kd [mM] | Structure (SMILES)
1.3 | COc1ccc(NC(C)=O)cc1Cl
16.6 | Cc1cncc(Cc2cccc(CO)c2)n1

target: T1, D-3-phosphoglycerate dehydrogenase; test: Inhibition of human PHGDH using 3-PG as substrate by fluorescence based analysis

Structure (SMILES) | IC50 [µM]
O=C(c1ccc(Cl)cc1)N1CCOCC1 [(4-CHLOROPHENYL)(MORPHOLINO)METHANONE] | 10.4

target: T1, D-3-phosphoglycerate dehydrogenase; test: Binding affinity to human PHGDH expressed in Escherichia coli BL21 incubated for 30 mins by MST assay

Kd [µM] | Structure (SMILES)
15.2 | COC(=O)[C@H](C)N1Cc2c(O)c(O)c(O)c(C)c2C1=O

target: T1, D-3-phosphoglycerate dehydrogenase; test: Inhibition of human PHGDH expressed in Escherichia coli BL21 using 3-PG as substrate incubated for 30 mins by fluorescence based analysis

IC50 [µM] | Structure (SMILES)
9.76 | COC(=O)[C@H](C)N1Cc2c(O)c(O)c(O)c(C)c2C1=O
1.66 | C[C@H]1C(=O)OC([C@@H](O)[C@](C)(O)C2[C@@H](O)CC3C4C[C@H]5O[C@]56[C@@H](O)C=CC(=O)[C@]6(C)C4CC[C@@]32C)[C@@H]1C (some centres not stated)
